Results published in paper PMC10609013, “Solubility and Thermodynamic Analysis of Isotretinoin in Different (DMSO + Water) Mixtures” (Molecules, 2023).

Experiments:
[1] = Activity coefficients (γi) of ITN, Equation (4); type: physicochemical
From the text: Finally, the x^idl values for ITN were derived from Equation (2). Equation (4) was used to derive the γi values for ITN in numerous {DMSO (1) + H2O (2)} mixes including neat DMSO and H2O [56, 58]:(4) γi=x^idl/xe

[2] = Enthalpy-entropy compensation analysis; type: physicochemical; details: all {DMSO (1) + H2O (2)} mixes, neat DMSO and H2O, Thm = 308 K
From the text: An enthalpy–entropy compensation analysis was used, as previously described, to evaluate the solvation behavior of ITN (3) in numerous mixes of {DMSO (1) + H2O (2)}. Weighted curves of ΔsolH° vs. ΔsolG° were generated at Thm = 308 K for this experiment.

## CC1=C(/C=C/C(C)=C/C=C/C(C)=C\C(=O)O)C(C)(C)CCC1 [ITN, isotretinoin]
[1]; DMSO mass fraction m = 0.0, T = 298.2 K
  γi activity coefficient: 1,366,467
[1]; DMSO mass fraction m = 0.0, T = 303.2 K
  γi activity coefficient: 972,627.0
[1]; DMSO mass fraction m = 0.0, T = 308.2 K
  γi activity coefficient: 611,320.0
[1]; DMSO mass fraction m = 0.0, T = 313.2 K
  γi activity coefficient: 441,076.0
[1]; DMSO mass fraction m = 0.0, T = 318.2 K
  γi activity coefficient: 326,128.0
[1]; DMSO mass fraction m = 0.1, T = 298.2 K
  γi activity coefficient: 384,000.0
[1]; DMSO mass fraction m = 0.1, T = 303.2 K
  γi activity coefficient: 278,000.0
[1]; DMSO mass fraction m = 0.1, T = 308.2 K
  γi activity coefficient: 187,000.0
[1]; DMSO mass fraction m = 0.1, T = 313.2 K
  γi activity coefficient: 136,000.0
[1]; DMSO mass fraction m = 0.1, T = 318.2 K
  γi activity coefficient: 106,000.0
[1]; DMSO mass fraction m = 0.2, T = 298.2 K
  γi activity coefficient: 111,979.0
[1]; DMSO mass fraction m = 0.2, T = 303.2 K
  γi activity coefficient: 83,952.80
[1]; DMSO mass fraction m = 0.2, T = 308.2 K
  γi activity coefficient: 58,249.00
[1]; DMSO mass fraction m = 0.2, T = 313.2 K
  γi activity coefficient: 43,099.10
[1]; DMSO mass fraction m = 0.2, T = 318.2 K
  γi activity coefficient: 34,943.20
[1]; DMSO mass fraction m = 0.3, T = 298.2 K
  γi activity coefficient: 31,441.80
[1]; DMSO mass fraction m = 0.3, T = 303.2 K
  γi activity coefficient: 24,298.30
[1]; DMSO mass fraction m = 0.3, T = 308.2 K
  γi activity coefficient: 17,811.50
[1]; DMSO mass fraction m = 0.3, T = 313.2 K
  γi activity coefficient: 13,802.30
[1]; DMSO mass fraction m = 0.3, T = 318.2 K
  γi activity coefficient: 11,402.70
[1]; DMSO mass fraction m = 0.4, T = 298.2 K
  γi activity coefficient: 9161.740
[1]; DMSO mass fraction m = 0.4, T = 303.2 K
  γi activity coefficient: 7310.360
[1]; DMSO mass fraction m = 0.4, T = 308.2 K
  γi activity coefficient: 5568.540
[1]; DMSO mass fraction m = 0.4, T = 313.2 K
  γi activity coefficient: 4372.740
[1]; DMSO mass fraction m = 0.4, T = 318.2 K
  γi activity coefficient: 3713.1570
[1]; DMSO mass fraction m = 0.5, T = 298.2 K
  γi activity coefficient: 2602.340
[1]; DMSO mass fraction m = 0.5, T = 303.2 K
  γi activity coefficient: 2166.250
[1]; DMSO mass fraction m = 0.5, T = 308.2 K
  γi activity coefficient: 1703.980
[1]; DMSO mass fraction m = 0.5, T = 313.2 K
  γi activity coefficient: 1429.250
[1]; DMSO mass fraction m = 0.5, T = 318.2 K
  γi activity coefficient: 1233.060
[1]; DMSO mass fraction m = 0.6, T = 298.2 K
  γi activity coefficient: 751.8650
[1]; DMSO mass fraction m = 0.6, T = 303.2 K
  γi activity coefficient: 644.3650
[1]; DMSO mass fraction m = 0.6, T = 308.2 K
  γi activity coefficient: 534.7140
[1]; DMSO mass fraction m = 0.6, T = 313.2 K
  γi activity coefficient: 438.6560
[1]; DMSO mass fraction m = 0.6, T = 318.2 K
  γi activity coefficient: 399.5110
[1]; DMSO mass fraction m = 0.7, T = 298.2 K
  γi activity coefficient: 211.8050
[1]; DMSO mass fraction m = 0.7, T = 303.2 K
  γi activity coefficient: 189.9250
[1]; DMSO mass fraction m = 0.7, T = 308.2 K
  γi activity coefficient: 164.4500
[1]; DMSO mass fraction m = 0.7, T = 313.2 K
  γi activity coefficient: 146.1890
[1]; DMSO mass fraction m = 0.7, T = 318.2 K
  γi activity coefficient: 133.4190
[1]; DMSO mass fraction m = 0.8, T = 298.2 K
  γi activity coefficient: 61.49
[1]; DMSO mass fraction m = 0.8, T = 303.2 K
  γi activity coefficient: 56.72
[1]; DMSO mass fraction m = 0.8, T = 308.2 K
  γi activity coefficient: 51.11
[1]; DMSO mass fraction m = 0.8, T = 313.2 K
  γi activity coefficient: 46.46
[1]; DMSO mass fraction m = 0.8, T = 318.2 K
  γi activity coefficient: 42.45
[1]; DMSO mass fraction m = 0.9, T = 298.2 K
  γi activity coefficient: 17.6
[1]; DMSO mass fraction m = 0.9, T = 303.2 K
  γi activity coefficient: 16.68
[1]; DMSO mass fraction m = 0.9, T = 308.2 K
  γi activity coefficient: 16.02
[1]; DMSO mass fraction m = 0.9, T = 313.2 K
  γi activity coefficient: 14.84
[1]; DMSO mass fraction m = 0.9, T = 318.2 K
  γi activity coefficient: 14.42
[1]; DMSO mass fraction m = 1.0, T = 298.2 K
  γi activity coefficient: 5.057
[1]; DMSO mass fraction m = 1.0, T = 303.2 K
  γi activity coefficient: 4.988
[1]; DMSO mass fraction m = 1.0, T = 308.2 K
  γi activity coefficient: 4.919
[1]; DMSO mass fraction m = 1.0, T = 313.2 K
  γi activity coefficient: 4.829
[1]; DMSO mass fraction m = 1.0, T = 318.2 K
  γi activity coefficient: 4.791
[2]
  solvation driven mechanism: enthalpy-driven
